# Marks after values point to notes of the source that are not given here.
# What was measured:
# Pgp [1] = biological target: T1, Pgp (Homo sapiens, UniProt P08183); experiment: ABC-mediated drug efflux assay, rhodamine 123 accumulation, Mz-ChA-1 cells; conditions: 2 h pre-treatment, sesquiterpenes 10 μg/mL, verapamil 1 μg/mL, vs control
# Method: (§1) The ability of β-caryophyllene and β-caryophyllene oxide to inhibit the activity of Pgp and MRP1/2 transporters was measured according to previously published methods with slight modifications. […] Fluorescence was measured at excitation and emission wavelengths of 485 nm and 535 nm for both probes, using a Cytation 1 Cell Imaging Multimode Reader (Biotech, Santa Clara, CA, USA). Results were normalized to viable cells and expressed as percentage of the negative control.
# MRP1 [2] = experiment: RT-qPCR gene expression in Bx-PC3 cells, MRP1; type: cell-based, human; conditions: substance in combination with sorafenib, given for MRP1 and MRP2 together
# Source text: (§2) Suitable vehicle controls were also included.
# [3] = system: noncancerous H69 cholangiocytes; experiment: Combination assay with sorafenib (MTT), tolerability in H69; type: cell-based, human; conditions: sesquiterpene 10 μg/mL combined with sorafenib (protective effect at sorafenib 10 μg/mL)
# Method: as §2
# (§3) The type of interaction (synergistic, additive, or antagonistic) among sorafenib and test substances or positive controls was evaluated by measuring the reversal ratio value (RR), combination index (CI), and isobolographic analysis (IB), as previously described.
# Bx-PC3 [4] = experiment: Combination assay with sorafenib (MTT), Bx-PC3; type: cell-based, human;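 as to increase of sorafenib cytotoxicity in combination: percent increase of sorafenib cell viability inhibition versus sorafenib alone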
# Method: as §2, §3
# Pgp [5] = biological target: T1, Pgp; experiment: ABC-mediated drug efflux assay, rhodamine 123 accumulation, Bx-PC3 cells; conditions: 2 h pre-treatment, sesquiterpenes 10 μg/mL, verapamil 1 μg/mL, vs control
# Method: as §1
# MRP2 [6] = experiment: Immunofluorescence analysis in Bx-PC3 cells, MRP2; type: cell-based, human
# Method: as §2
# (§4) The analysis was performed according to previously published methods. Confluent cells were seeded in 24-well plates (2 × 10^4 cells/well), allowed to adhere overnight, then treated as described above. After treatment, cells were fixed in pure methanol and washed with 4% bovine serum albumin (BSA) and PBS + Tween 20 (PBS-T) for 1 h. […] The expression and localization of Pgp, MRP1, and MRP2 pumps into cells were analyzed by using a Cytation 1 Cell Imaging Multimode Reader (Biotech, USA).
# MRP1/2 [7] = experiment: ABC-mediated drug efflux assay, calcein-AM accumulation, Bx-PC3 cells; type: cell-based, human; conditions: 2 h pre-treatment, sesquiterpenes 10 μg/mL, MK571 1 μg/mL, vs control
# MRP2 [8] = experiment: RT-qPCR gene expression in Bx-PC3 cells, MRP2; conditions: substance in combination with sorafenib, given for MRP1 and MRP2 together
# Method: (§6) Confluent cells were treated with the test substances, both alone or in combination with the anticancer drug, for 4 h, then washed and incubated for a further 72 h (Figure 1), according to previously published protocols [20]. […] Suitable vehicle controls were also included.
# (§7) The results of mRNA abundance for the targeted genes in each sample were normalized on the basis of GAPDH (Bio-Rad, Hercules, CA, USA) mRNA. Data are expressed as 2^−ΔCt, calculated using the CFX Manager software (Bio-Rad).
# MRP1 [9] = experiment: Immunofluorescence analysis in Bx-PC3 cells, MRP1; type: cell-based, human; conditions: substance 10 µg/mL in combination with sorafenib 10 µg/mL
# Method: as §2, §4
# Mz-ChA-1 [10] = experiment: MTT cytotoxicity assay, substances alone, Mz-ChA-1; type: cell-based, human; conditions: Mz-ChA-1
# Method: as §2
# (§5) The effect of the treatments on cell viability was measured by the MTT assay as previously described. A higher than 30% reduction of cell viability was considered as a significant cytotoxic effect.
# Bx-PC3 cells = experiment: Wound healing assay (cell migration); type: cell-based, human
# Method: To evaluate the effect of caryophyllane sesquiterpenes, both alone and in combination with sorafenib, on the cell migration rate, the wound healing assay was performed. Bx-PC3 cells were seeded in 24-well plate at a density of 2.5 × 10^5 cells/well. After 24 h, the wound was created by scratching the well bottom with a 100 μL pipette tip, then the cells were treated under the scheduled conditions and images were captured at 0, 4, and 72 h using a Cytation 1 Cell Imaging Multi-Mode Reader. […] Results were expressed as wound area percentage with respect to that of the same well at zero time. The positive controls were also included.
# Pgp [11] = biological target: T1, Pgp; experiment: ABC-mediated drug efflux assay, rhodamine 123 accumulation, HepG2 cells; conditions: 2 h pre-treatment, sesquiterpenes 10 μg/mL, verapamil 1 μg/mL, vs control
# Method: as §1
# [12] = system: noncancerous H69 cholangiocytes; experiment: MTT cytotoxicity assay (tolerability), substances alone, H69; type: cell-based, human; conditions: H69 noncancerous cholangiocytes; substance alone; 4 h exposure + 72 h recovery
# Method: as §2, §5
# Pgp [13] = experiment: Immunofluorescence analysis in Bx-PC3 cells, Pgp; type: cell-based, human
# Method: as §2, §4
# HepG2 [14] = experiment: Combination assay with sorafenib (MTT), HepG2; type: cell-based, human; conditions: for increase of sorafenib cytotoxicity in combination: verapamil/MK571 1 µg/mL or sesquiterpenes 10 µg/mL;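 as to increase of sorafenib cytotoxicity in combination: percent increase of sorafenib cell viability inhibition versus sorafenib alone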
# Method: as §2, §3
# [15] = design: method as in PMID 33081075; conditions: European Food Safety Authority; cited from earlier work
# [16] = design: method as in PMID 30659321; conditions: previous in vivo study; cited from earlier work
# MDR1 = experiment: RT-qPCR gene expression in Bx-PC3 cells, MDR1
# Method: as §6, §7
# Mz-ChA-1 [17] = experiment: Combination assay with sorafenib (MTT), Mz-ChA-1; type: cell-based, human;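 as to increase of sorafenib cytotoxicity in combination: percent increase of sorafenib cell viability inhibition versus sorafenib alone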
# Method: as §2, §3
# HepG2 [18] = experiment: MTT cytotoxicity assay, substances alone, HepG2; type: cell-based, human; conditions: HepG2
# Method: as §2, §5
# MRP1/2 [19] = experiment: ABC-mediated drug efflux assay, calcein-AM accumulation, HepG2 cells; type: cell-based, human; conditions: 2 h pre-treatment, sesquiterpenes 10 μg/mL, vs control
# Bx-PC3 [20] = experiment: MTT cytotoxicity assay, substances alone, Bx-PC3; type: cell-based, human
# Method: as §2, §5
# phospho(Tyr705)-STAT3 = experiment: Western blotting of STAT3 phosphorylation in Bx-PC3 cells; type: cell-based, human
# Method: as §2
# Confluent cells were seeded in 6-well plates (5 × 10^5 cells/well), treated as described above, then harvested by centrifugation and washed in PBS. After lysis with a suitable buffer, the Western blotting analysis was carried out, according to previously published methods. […] The levels of phospho(Tyr705)-STAT3 were normalized against total STAT3 ones.
# MRP1/2 [21] = experiment: ABC-mediated drug efflux assay, calcein-AM accumulation, Mz-ChA-1 cells; type: cell-based, human; conditions: 2 h pre-treatment, sesquiterpenes 10 μg/mL, vs control
# [22] = substance alone, 4 h exposure + 72 h recovery
# [23] = substance in combination with sorafenib 10 μg/mL
# T1 sequence (P08183 whole entry): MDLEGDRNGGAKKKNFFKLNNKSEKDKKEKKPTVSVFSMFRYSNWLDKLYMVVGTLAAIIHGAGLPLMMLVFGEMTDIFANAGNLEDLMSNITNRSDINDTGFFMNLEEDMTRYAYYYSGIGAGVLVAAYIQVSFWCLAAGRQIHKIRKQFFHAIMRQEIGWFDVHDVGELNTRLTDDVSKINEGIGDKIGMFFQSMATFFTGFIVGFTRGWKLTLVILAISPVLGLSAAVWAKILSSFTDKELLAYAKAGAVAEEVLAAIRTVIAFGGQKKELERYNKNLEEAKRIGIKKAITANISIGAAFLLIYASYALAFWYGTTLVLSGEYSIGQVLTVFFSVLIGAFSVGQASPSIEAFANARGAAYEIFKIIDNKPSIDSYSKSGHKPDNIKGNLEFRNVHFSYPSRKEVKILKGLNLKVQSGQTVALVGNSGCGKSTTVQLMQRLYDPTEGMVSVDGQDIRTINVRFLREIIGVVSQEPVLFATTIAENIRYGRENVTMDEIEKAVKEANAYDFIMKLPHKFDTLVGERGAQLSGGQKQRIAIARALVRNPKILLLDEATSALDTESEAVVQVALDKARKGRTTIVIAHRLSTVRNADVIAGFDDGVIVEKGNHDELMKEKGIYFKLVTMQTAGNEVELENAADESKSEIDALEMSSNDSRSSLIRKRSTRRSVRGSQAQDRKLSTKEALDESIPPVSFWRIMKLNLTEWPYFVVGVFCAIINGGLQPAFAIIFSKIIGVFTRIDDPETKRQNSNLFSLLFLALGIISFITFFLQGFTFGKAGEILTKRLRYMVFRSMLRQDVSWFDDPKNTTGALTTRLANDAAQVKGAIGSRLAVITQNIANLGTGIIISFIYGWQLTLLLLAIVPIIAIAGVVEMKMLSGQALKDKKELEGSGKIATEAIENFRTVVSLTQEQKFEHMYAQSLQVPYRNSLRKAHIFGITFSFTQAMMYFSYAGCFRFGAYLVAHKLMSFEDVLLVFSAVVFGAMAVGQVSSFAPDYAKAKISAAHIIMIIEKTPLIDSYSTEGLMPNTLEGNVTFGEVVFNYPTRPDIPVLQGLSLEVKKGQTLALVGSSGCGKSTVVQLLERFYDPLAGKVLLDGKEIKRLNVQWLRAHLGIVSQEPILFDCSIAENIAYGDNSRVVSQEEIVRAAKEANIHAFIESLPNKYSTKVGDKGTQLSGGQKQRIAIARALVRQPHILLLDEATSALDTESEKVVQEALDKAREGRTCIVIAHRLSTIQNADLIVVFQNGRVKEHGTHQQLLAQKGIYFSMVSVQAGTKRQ
smiles,measurement,setting,value
"C=C1CC[C@H]2O[C@]2(C)CC[C@@H]2[C@@H]1CC2(C)C [β-Caryophyllene oxide, β-caryophyllene oxide]",increase of rhodamine 123 accumulation,Pgp [1],~1.2 fold
same,reduction of MRP1 gene expression,MRP1 [2],3 fold
same,effect on sorafenib cytotoxicity in noncancerous cells,[3],null effect
same,reduction of sorafenib IC50 in the presence of the substance,Bx-PC3 [4],9 fold
same,combination index (CI) with sorafenib,Bx-PC3 [4]; CI lower than 1 = synergistic,0.26
same,increase of sorafenib cytotoxicity in combination,"Bx-PC3 [4]; sesquiterpenes 10 µg/mL, sorafenib concentration not stated (Figure 3F)",64%
same,increase of rhodamine 123 accumulation,Pgp [5],approximately 2.7 fold
same,reduction of MRP2 expression with respect to sorafenib,MRP2 [6]; substance 10 µg/mL in combination with sorafenib 10 µg/mL,1.6 fold
same,increase of MRP2 expression (immunofluorescence),"MRP2 [6]; substance alone, 10 µg/mL",1.2 fold
same,increase of calcein-AM accumulation,MRP1/2 [7],~3.0 fold
same,reduction of MRP2 gene expression,MRP2 [8],3 fold
same,reduction of MRP1 expression with respect to sorafenib,MRP1 [9],1.5 fold
same,IC50 higher than that of sorafenib,Mz-ChA-1 [10],1.2 fold
same,inhibition of cell viability,Mz-ChA-1 [10]; 50 µg/mL,16%
same,inhibition of cell viability,Mz-ChA-1 [10]; 250 µg/mL,90%
same,IC50 (CL),Mz-ChA-1 [10]; [22],94.5 (90.1–99.1) ** µg/mL
same,wound area / cell migration after 72 h,"Bx-PC3 cells; substance alone, sesquiterpenes 10 µg/mL, verapamil/MK571 1 µg/mL",blocked cell migration
same,increase of wound area,"Bx-PC3 cells; substance in combination with sorafenib 10 µg/mL, reference and time not stated",~5 fold
same,increase of rhodamine 123 accumulation,Pgp [11],~2.5 fold
same,IC50 (CL),[12],99.7 (93.1–106.9) *** µg/mL
same,effect on Pgp expression (immunofluorescence),"Pgp [13]; substance alone, sorafenib and sesquiterpenes 10 µg/mL, verapamil 1 µg/mL",did not affect
same,reduction of Pgp expression compared to control,Pgp [13]; [23],~1.8 fold
same,reduction of sorafenib IC50 in the presence of the substance,HepG2 [14],~6 fold
same,combination index (CI) with sorafenib,HepG2 [14]; CI lower than 1 = synergistic,0.29
same,increase of sorafenib cytotoxicity in combination,HepG2 [14]; sorafenib 1 µg/mL,20%
same,increase of sorafenib cytotoxicity in combination,HepG2 [14]; sorafenib 10 µg/mL,~44%
same,considered safe up to (approved as flavoring),[15],≤ 109 mg/kg/die
same,safety in vivo up to,[16],≤ 100 mg/kg
same,increase of MDR1 gene expression with respect to control,MDR1; [22],4.7 fold
same,downregulation of MDR1 gene with respect to sorafenib alone,MDR1; substance in combination with sorafenib,1.3 fold
same,reduction of sorafenib IC50 in the presence of the substance,Mz-ChA-1 [17],~1.5 fold
same,combination index (CI) with sorafenib,Mz-ChA-1 [17]; CI lower than 1 = synergistic,0.76
same,increase of sorafenib cytotoxicity in combination,"Mz-ChA-1 [17]; sorafenib 10 µg/mL, verapamil/MK571 1 µg/mL or sesquiterpenes 10 µg/mL",14%
same,increase of sorafenib cytotoxicity in combination,"Mz-ChA-1 [17]; sorafenib 50 µg/mL, sesquiterpenes 10 µg/mL",13%
same,IC50 higher than that of sorafenib,HepG2 [18],1.7 fold
same,IC50 (CL),"HepG2 [18]; substance alone, 4 h exposure + 72 h recovery, CL confidence limits",78.7 (76.8–80.5) *** µg/mL
same,increase of calcein-AM accumulation,MRP1/2 [19],approximately 1.3 fold
same,IC50 higher than that of sorafenib,Bx-PC3 [20],2.1 fold
same,inhibition of cell viability,Bx-PC3 [20]; 50 µg/mL,30%
same,inhibition of cell viability,Bx-PC3 [20]; 250 µg/mL,95%
same,IC50 (CL),Bx-PC3 [20]; [22],65.3 (62.1–68.7) *** µg/mL
same,increase of STAT3 phosphorylation at tyrosine 705,"phospho(Tyr705)-STAT3; substance alone, sorafenib and sesquiterpenes 10 μg/mL, verapamil/MK571 1 μg/mL, normalized to total STAT3",approximately 3 fold
same,reduction of phospho(Tyr705)-STAT3 with respect to sorafenib,phospho(Tyr705)-STAT3; [23],2.6 fold
same,increase of calcein-AM accumulation,MRP1/2 [21],~1.4 fold

# Source: PMC9231089, “Sorafenib Chemosensitization by Caryophyllane Sesquiterpenes in Liver, Biliary, and Pancreatic Cancer Cells: The Role of STAT3/ABC Transporter Axis” (Pharmaceutics, 2022)
